Assay results as given in US6258790A, “Antisense modulation of integrin α4 expression” (Isis Pharmaceuticals, Inc., priority 1999, dated 2001).

Assays:
[1] = system: Mouse experimental autoimmune encephalomyelitis (EAE); test: Mouse experimental autoimmune encephalomyelitis (EAE) model for multiple sclerosis; type: in vivo, mouse (CSJLF-1); details: for Peak Severity: score 0 to 5; for effect on EAE given therapeutically: therapeutic
integrin α4 = test: Inhibition of integrin α4 protein expression in Jurkat T-lymphocyte cells; type: cell-based, human
Description: ISIS 107248 was tested at doses of 1, 3, 10, 20 and 30 μM for ability to inhibit integrin α4 expression in Jurkat T-lymphocyte cells according to the previous examples. Integrin α4 protein expression was reduced by approximately 65-72% at oligonucleotide doses of 3-30 μM at 24 hours after oligonucleotide treatment. At 48 hours after treatment, integrin α4 protein expression was reduced by 60% at 3 μM and by 90% at 10, 20 and 30 μM oligonucleotide concentration.

[2] = system: A375 melanoma cell adherence to HUVEC; test: Adherence of A375 melanoma cells to HUVEC (flow cytometry); type: cell-based, human; details: 10 μM; compared to TNF treated control
Description: Human umbilical vein endothelial cells (HUVEC) (Clonetics, San Diego Calif.) were cultured in EGM-UV medium (Clonetics)and treated with TNFA for 20 hours to induce VCAM expression. A375 melanoma cells were electroporated with ISIS 107248 as described above. Using antibody to PECAM, a specific marker for endothelial cells, flow cytometry was used to quantitate the inhibition of adherence of A375 melanoma cells to HUVECs. Compared to control (TNF treated, no oligonucleotide), ISIS 107248 (10 μM) inhibited A375 melanoma cell adherence to HUVEC by approximately 85%. An antibody to integrin α4 inhibited adherence by approximately 72%. Melanoma cells represent a clinically relevant model because a statistically significant correlation has been shown between increased expression of VLA-4 expression(of which integrin α4 is one member) and time to progression and overall survival time of patients with melanoma. Schadendorf et al., J. Natl. Cancer Inst., 1995, 87, 366-371.

[3] = system: Jurkat T-cell adherence to HUVEC; test: Adherence of Jurkat T-cells to HUVEC (flow cytometry); type: cell-based, human
Description: A similar adherence assay was performed using Jurkat T-cells instead of melanoma cells, again detecting adherence to HUVEC. Because Jurkat cells are smaller and less complex, they can be separated from HUVEC by gating on the basis of differences in forward light scatter and side scatter. For 5000 HUVEC events, adherent Jurkat cells were quantitated. At oligonucleotide concentrations of 1, 3, 10, and 30 μM ISIS 107248, adherence of Jurkat cells to HUVEC was 0, 12%, 32% and 63%, respectively.

[4] = EAE Experiment 1, 1 mg/kg daily SC
[5] = EAE Experiment 1, 5 mg/kg daily SC
[6] = EAE Experiment 1, 10 mg/kg daily SC
[7] = EAE Experiment 1, 20 mg/kg daily SC
[8] = EAE Experiment 3, 1 mg/kg 3× weekly
[9] = EAE Experiment 4, 0.01 mg/kg, prophylactic (P)
[10] = EAE Experiment 4, 0.1 mg/kg SC, prophylactic (P)
[11] = EAE Experiment 4, 1.0 mg/kg SC, prophylactic (P)
[12] = EAE Experiment 4, 1 mg/kg, therapeutic (T), day 18 to 31
[13] = EAE Experiment 4, 2.0 mg/kg SC, prophylactic (P)
[14] = EAE Experiment 5, 0.01 mg/kg, prophylactic (P)
[15] = EAE Experiment 5, 0.1 mg/kg SC, prophylactic (P)
[16] = EAE Experiment 5, 1.0 mg/kg SC, prophylactic (P)
[17] = EAE Experiment 5, 1 mg/kg, therapeutic (T), day 11 to 27
[18] = EAE Experiment 5, 2.0 mg/kg SC, prophylactic (P)

For “17044 (CCGCAGCCATGCGCTCTTGG; phosphorothioate, 2'-MOE/deoxy, further chemistry not given here) [compound 17044]”, the “effect on EAE” value ([1]; EAE Experiment 1) was “reduced disease severity or delayed disease onset”, the “Days to Onset” value [1, 4] was 17.25 days and the “Disease Incidence” value [1, 4] was 4/7. The “Peak Severity” value [1, 4] was 0.29, the “Days to Onset” value [1, 5] was 17 days and the “Disease Incidence” value [1, 5] was 6/7. For the same substance, the “Peak Severity” value [1, 5] was 1.86, the “Days to Onset” value [1, 6] was 12.75 days and the “Disease Incidence” value [1, 6] was 4/7. For the same substance, the “Peak Severity” value [1, 6] was 2.0, the “Days to Onset” value [1, 7] was 15 days and the “Disease Incidence” value [1, 7] was 5/7. For the same substance, the “Peak Severity” value [1, 7] was 1.43, the “effect on EAE” value ([1]; EAE Experiment 2) was “reduced disease severity and delayed disease onset at all concentrations” and the “Days to Onset” value ([1]; EAE Experiment 2, 0.3 mg/kg SC) was 16.57 days. For the same substance, the “Disease Incidence” value ([1]; EAE Experiment 2, 0.3 mg/kg SC) was 7/7, the “Peak Severity” value ([1]; EAE Experiment 2, 0.3 mg/kg SC) was 2.14 and the “Days to Onset” value ([1]; EAE Experiment 2, 1 mg/kg IV) was 17.2 days. For the same substance, the “Disease Incidence” value ([1]; EAE Experiment 2, 1 mg/kg IV) was 5/7, the “Peak Severity” value ([1]; EAE Experiment 2, 1 mg/kg IV) was 1.42 and the “Days to Onset” value ([1]; EAE Experiment 2, 1 mg/kg SC) was 18.25 days. For the same substance, the “Disease Incidence” value ([1]; EAE Experiment 2, 1 mg/kg SC) was 4/7, the “Peak Severity” value ([1]; EAE Experiment 2, 1 mg/kg SC) was 1.0 and the “Days to Onset” value ([1]; EAE Experiment 2, 3 mg/kg SC) was 16.4 days. For the same substance, the “Disease Incidence” value ([1]; EAE Experiment 2, 3 mg/kg SC) was 7/7, the “Peak Severity” value ([1]; EAE Experiment 2, 3 mg/kg SC) was 2.29 and the “effect on EAE” value ([1]; EAE Experiment 3) was “reduced disease severity or delayed disease onset”. For the same substance, the “Days to Onset” value ([1]; EAE Experiment 3, 0.5 mg/kg SC) was 21.4 days, the “Disease Incidence” value ([1]; EAE Experiment 3, 0.5 mg/kg SC) was 5/6 and the “Peak Severity” value ([1]; EAE Experiment 3, 0.5 mg/kg SC) was 1.5. The “Days to Onset” value [1, 8] was 20.3 days, the “Disease Incidence” value [1, 8] was 6/7 and the “Peak Severity” value [1, 8] was 1.0. For the same substance, the “Days to Onset” value ([1]; EAE Experiment 3, 1.0 mg/kg SC) was 19.25 days, the “Disease Incidence” value ([1]; EAE Experiment 3, 1.0 mg/kg SC) was 4/5 and the “Peak Severity” value ([1]; EAE Experiment 3, 1.0 mg/kg SC) was 1.5. The “Days to Onset” value ([1]; EAE Experiment 3, 1.5 mg/kg SC) was 17.5 days, the “Disease Incidence” value ([1]; EAE Experiment 3, 1.5 mg/kg SC) was 4/7 and the “Peak Severity” value ([1]; EAE Experiment 3, 1.5 mg/kg SC) was 1.5. For the same substance, the “Days to Onset” value ([1]; EAE Experiment 3, 2 mg/kg SC) was 20 days, the “Disease Incidence” value ([1]; EAE Experiment 3, 2 mg/kg SC) was 2/6 and the “Peak Severity” value ([1]; EAE Experiment 3, 2 mg/kg SC) was 0.83. For the same substance, the “Days to Onset” value [1, 9] was 13.83 days, the “Disease Incidence” value [1, 9] was 6/7 and the “Peak Severity” value [1, 9] was 1.86. For the same substance, the “Days to Onset” value [1, 10] was 16.29 days, the “Disease Incidence” value [1, 10] was 7/7 and the “Peak Severity” value [1, 10] was 1.57. For the same substance, the “Days to Onset” value [1, 11] was 15 days, the “Disease Incidence” value [1, 11] was 5/5 and the “Peak Severity” value [1, 11] was 2.2. For the same substance, the “Days to Onset” value [1, 12] was 13.3 days, the “Disease Incidence” value [1, 12] was 6/6 and the “Peak Severity” value [1, 12] was 1.83. The “Days to Onset” value [1, 13] was 16.71 days, the “Disease Incidence” value [1, 13] was 7/7 and the “Peak Severity” value [1, 13] was 2.29. For the same substance, the “effect on EAE given therapeutically” value ([1]; EAE Experiment 4) was “reduced disease severity when given therapeutically”, the “Days to Onset” value [1, 14] was 11.57 days and the “Disease Incidence” value [1, 14] was 7/7. The “Peak Severity” value [1, 14] was 1.57, the “Days to Onset” value [1, 15] was 12.67 days and the “Disease Incidence” value [1, 15] was 6/7. The “Peak Severity” value [1, 15] was 1.14, the “Days to Onset” value [1, 16] was 11.33 days and the “Disease Incidence” value [1, 16] was 6/7. For the same substance, the “Peak Severity” value [1, 16] was 1.86, the “Days to Onset” value [1, 17] was 12.71 days and the “Disease Incidence” value [1, 17] was 7/7. The “Peak Severity” value [1, 17] was 1.42, the “Days to Onset” value [1, 18] was 12 days and the “Disease Incidence” value [1, 18] was 7/7. The “Peak Severity” value [1, 18] was 1.86 and the “effect on EAE given therapeutically” value ([1]; EAE Experiment 5) was “reduced disease severity when given therapeutically”.
With “107248 (antisense CTGAGTCTGTTTTCCATTCT; chemistry not given here) [compound 107248]” the “reduction of integrin α4 protein expression” value (“reduction” for short) (integrin α4; 3 μM, 48 hours) was 60%, the “reduction” value (integrin α4; 10 μM, 48 hours) was 90% and the “reduction” value (integrin α4; 20 μM, 48 hours) was 90%. The “reduction” value (integrin α4; 30 μM, 48 hours) was 90%, the “reduction” value (integrin α4; 3-30 μM, 24 hours) was 65-72% and the “inhibition of A375 melanoma cell adherence to HUVEC” value [2] was “approximately 85%”. The “adherence of Jurkat cells to HUVEC” value ([3]; 1 μM) was 0%, the “adherence of Jurkat cells to HUVEC” value ([3]; 3 μM) was 12% and the “adherence of Jurkat cells to HUVEC” value ([3]; 10 μM) was 32%. The “adherence of Jurkat cells to HUVEC” value ([3]; 30 μM) was 63%.
